Measured values as given in US20240173329A1, “BELVARAFENIB FOR USE IN TREATMENT OF BRAIN CANCERS” (Genentech, Inc., priority 2021, published 2024).

Legend:
EPHA7 = EPHA7 (Homo sapiens, UniProt Q15375); assay: panel of 189 kinase assays; type: biochemical
EPHA2 = EPHA2 (Homo sapiens, UniProt P29317); assay: panel of 189 kinase assays; type: biochemical
[1] = tested on: solid tumors harboring mutations in BRAF, KRAS, or NRAS genes; assay: open-label Phase Ia dose-escalation study; type: in vivo, human; details: for Median DOR: updated
Experimental: For instance, a completed, open-label, Phase Ia, dose-escalation investigated several doses and schedules of belvarafenib in patients with solid tumors harboring mutations in BRAF, KRAS, or NRAS genes. Efficacy was analyzed for 67 of 72 subjects who had at least 1 post-baseline tumor assessment. […] Fifty-nine (88.06%) subjects developed an event (progression of disease or death), all of which were reported as progressive disease (PD). In addition, median progression-free survival was 11.53 weeks and the 95% confidence interval for the median was [7.12 weeks, 13.38 weeks). […] Median DOR was elevated to 30.18 weeks in 800 mg BID group and 23.99 weeks in total group including DOR of a subject which is 100.29 weeks.

P-gp/BCRP = P-gp/BCRP efflux substrate status; type: in vitro ADME; details: belvarafenib, own experiments
[2] = Brain to plasma ratio of belvarafenib, summary over mice and rats; type: in vivo; details: for Kp: mouse, rat, brain/plasma
Experimental: Pharmacokinetic parameters of belvarafenib were calculated from plasma and brain concentration-time data by a non-compartmental method using Phoenix™ WinNonlin 8.1 (Certara, USA). The peak plasma and brain concentration (Cmax) and the corresponding time (Tmax) were directly obtained from the raw data. The area under the plasma curve (AUClast) was obtained by linear-log trapezoidal summation. Other PK parameters such as AUC from dosing time extrapolated to infinity (AUCinf), half-life (t1/2) and mean residence time (MTRlast) were calculated using WinNonlin. The plasma and brain concentrations of belvarafenib were presented as MEAN±S.D. The brain to plasma (B/P) ratio of Belvarafenib was calculated by dividing AUClast in the brain by AUClast in the plasma.
The brain to plasma ratio is expressed in terms of B/P (nonclinical) defined as the percentage of brain exposure relative to plasma. The B/P for belvarafenib was determined experimentally according to the present disclosure and wherein the B/P of 93% is for mice and the B/P of 138% is for rats. The B/P for DAY101 is for mice was taken from Gampa, et al., “Brain Distribution and Active Efflux of Three pan-RAF Inhibitors: Considerations in the Treatment of Melanoma Brain Metastases”, J Pharmacol Exp Ther 368:446-461, March 2019. The B/P for dabrafenib is for mice and was taken from Mittapalli, et al., “Mechanisms Limiting Distribution of the Threonine-Protein Kinase B-RaFV600E Inhibitor Dabrafenib to the Brain: Implications for the Treatment of Melanoma Brain Metastases”, J Pharmacol Exp Ther 344:[…], 2013. The B/P for vemurafenib is for mice and was taken from Mittapalli, et al., “Impact of P-glycoprotein (ABCB1) and breast cancer resistance protein (ABCG2) on the brain distribution of a novel BRAF inhibitor: vemurafenib (PLX4032)”, J Pharmacol Exp Ther 342:33-40, 2013. […]

[3] = molecular target: T1, discoidin domain receptor tyrosine kinase 2 (DDR2) (Homo sapiens, UniProt Q16832); assay: panel of 189 kinase assays; type: biochemical
T1 sequence (Q16832 22-855): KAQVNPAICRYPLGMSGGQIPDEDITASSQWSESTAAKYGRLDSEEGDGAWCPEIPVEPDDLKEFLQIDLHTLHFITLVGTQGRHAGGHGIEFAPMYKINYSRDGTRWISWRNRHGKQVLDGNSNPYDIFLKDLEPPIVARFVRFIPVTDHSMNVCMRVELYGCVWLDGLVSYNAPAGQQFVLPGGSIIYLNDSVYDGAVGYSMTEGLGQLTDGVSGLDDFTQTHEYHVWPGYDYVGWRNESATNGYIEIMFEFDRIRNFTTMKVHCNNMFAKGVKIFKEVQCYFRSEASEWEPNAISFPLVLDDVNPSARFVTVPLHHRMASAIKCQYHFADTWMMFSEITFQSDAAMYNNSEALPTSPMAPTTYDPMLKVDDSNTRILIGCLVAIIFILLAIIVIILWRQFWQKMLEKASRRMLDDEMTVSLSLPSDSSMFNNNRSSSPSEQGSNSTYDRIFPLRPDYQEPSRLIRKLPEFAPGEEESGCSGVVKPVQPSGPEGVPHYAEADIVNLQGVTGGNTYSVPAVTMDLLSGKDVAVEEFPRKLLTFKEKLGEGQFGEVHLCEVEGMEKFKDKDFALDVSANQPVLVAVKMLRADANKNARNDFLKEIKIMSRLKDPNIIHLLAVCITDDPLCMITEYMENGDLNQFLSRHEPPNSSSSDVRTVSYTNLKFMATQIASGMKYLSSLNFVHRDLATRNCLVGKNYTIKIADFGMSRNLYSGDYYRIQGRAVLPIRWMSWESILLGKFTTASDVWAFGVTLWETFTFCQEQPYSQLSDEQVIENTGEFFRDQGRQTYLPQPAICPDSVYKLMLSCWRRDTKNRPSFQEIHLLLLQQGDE

EPHA7, sequence (Q15375 28-998, species assumed): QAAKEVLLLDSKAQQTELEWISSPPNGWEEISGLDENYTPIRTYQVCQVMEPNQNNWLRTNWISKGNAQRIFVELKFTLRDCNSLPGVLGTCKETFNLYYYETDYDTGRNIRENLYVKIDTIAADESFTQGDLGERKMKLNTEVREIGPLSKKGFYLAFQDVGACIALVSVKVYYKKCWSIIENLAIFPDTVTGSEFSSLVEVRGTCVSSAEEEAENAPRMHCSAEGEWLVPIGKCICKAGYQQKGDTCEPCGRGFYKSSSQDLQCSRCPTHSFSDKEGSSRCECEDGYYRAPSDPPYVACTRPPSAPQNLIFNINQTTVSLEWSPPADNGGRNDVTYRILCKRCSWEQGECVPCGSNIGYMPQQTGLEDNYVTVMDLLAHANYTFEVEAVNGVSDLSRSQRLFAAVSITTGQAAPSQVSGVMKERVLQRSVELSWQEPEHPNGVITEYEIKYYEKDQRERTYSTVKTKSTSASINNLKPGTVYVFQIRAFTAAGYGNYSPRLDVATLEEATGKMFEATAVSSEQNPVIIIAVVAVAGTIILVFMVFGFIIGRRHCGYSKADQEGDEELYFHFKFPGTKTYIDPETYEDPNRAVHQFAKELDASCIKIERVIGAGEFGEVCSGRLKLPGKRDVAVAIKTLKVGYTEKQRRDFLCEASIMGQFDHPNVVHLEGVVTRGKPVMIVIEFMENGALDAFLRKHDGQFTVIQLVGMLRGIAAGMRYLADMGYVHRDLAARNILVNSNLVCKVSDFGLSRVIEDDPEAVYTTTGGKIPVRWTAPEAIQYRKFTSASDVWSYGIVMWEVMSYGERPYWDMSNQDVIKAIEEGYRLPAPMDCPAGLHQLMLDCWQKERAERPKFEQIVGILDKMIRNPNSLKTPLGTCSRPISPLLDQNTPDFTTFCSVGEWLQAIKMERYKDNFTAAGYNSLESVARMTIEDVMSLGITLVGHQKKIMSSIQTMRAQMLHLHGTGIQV
EPHA2, sequence (P29317 24-976, species assumed): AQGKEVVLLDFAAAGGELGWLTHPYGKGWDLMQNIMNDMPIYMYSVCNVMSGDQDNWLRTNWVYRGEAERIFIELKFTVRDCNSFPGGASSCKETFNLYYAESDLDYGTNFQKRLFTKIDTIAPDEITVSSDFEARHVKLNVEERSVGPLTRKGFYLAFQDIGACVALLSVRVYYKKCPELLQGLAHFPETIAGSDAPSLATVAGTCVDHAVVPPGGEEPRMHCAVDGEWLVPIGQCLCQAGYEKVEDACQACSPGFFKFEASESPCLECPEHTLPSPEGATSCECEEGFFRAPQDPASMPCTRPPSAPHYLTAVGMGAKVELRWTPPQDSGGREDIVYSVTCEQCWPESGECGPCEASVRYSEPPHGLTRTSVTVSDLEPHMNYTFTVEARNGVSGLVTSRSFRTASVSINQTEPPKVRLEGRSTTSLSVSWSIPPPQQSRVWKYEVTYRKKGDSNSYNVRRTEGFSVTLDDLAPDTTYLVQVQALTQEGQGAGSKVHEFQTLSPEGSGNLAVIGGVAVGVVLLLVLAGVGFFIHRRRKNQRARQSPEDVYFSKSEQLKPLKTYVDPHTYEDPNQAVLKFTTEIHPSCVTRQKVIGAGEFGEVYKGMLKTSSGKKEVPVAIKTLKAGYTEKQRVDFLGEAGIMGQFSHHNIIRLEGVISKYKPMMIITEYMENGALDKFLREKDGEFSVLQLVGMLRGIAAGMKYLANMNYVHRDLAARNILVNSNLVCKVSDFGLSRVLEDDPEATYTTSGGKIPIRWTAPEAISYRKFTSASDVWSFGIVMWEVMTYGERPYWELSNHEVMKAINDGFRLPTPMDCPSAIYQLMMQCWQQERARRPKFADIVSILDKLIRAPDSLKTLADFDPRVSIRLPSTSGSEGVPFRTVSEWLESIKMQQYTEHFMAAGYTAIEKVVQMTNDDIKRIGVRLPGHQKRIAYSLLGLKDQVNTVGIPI

In the case of `Cc1ccc2c(Nc3cccc(Cl)c3F)nccc2c1NC(=O)c1csc2c(N)ncnc12` [Belvarafenib, 4-amino-N-(1-((3-chloro-2-fluorophenyl)amino)-6-methylisoquinolin-5-yl)thieno[3,2-d]pyrimidine-7-carboxamide], the inhibition at 1 µM (EPHA7) is reported as over 90%, the inhibition at 1 µM (EPHA2) is reported as over 90% and the “Median DOR” value ([1]; 800 mg BID group) is reported as 30.18 weeks. The “Best overall response rate (BORR)” value ([1]; 67 evaluable subjects) was 8.96%, the “objective response rate (ORR)” value ([1]; 67 evaluable subjects) was 4.48% and the “subjects who developed an event (progression of disease or death)” value ([1]; 67 evaluable subjects) was 88.06%. The “BORR, subgroup re-analysis” value ([1]; BRAF-mutant melanoma subjects (13)) was 7.69%, the median progression-free survival ([1]; in vivo) was 11.53 weeks and the “DOR of a subject” value ([1]; single subject) was 100.29 weeks. The Disease control ([1]; subjects treated with 100 mg QD dose level or above) was 50.57%, the “Median DOR” value ([1]; total group) was 23.99 weeks and the “BORR, updated results” value ([1]; updated results) was 10.45%. The “ORR, updated results” value ([1]; updated results) was 4.48%, the “P-gp/BCRP efflux substrate?” value (P-gp/BCRP) was “is not a P-gp and a BCRP efflux substrate and No” and the “B/P (nonclinical), percentage of brain exposure relative to plasma” value ([2]; 93% mice, 138% rats) was 93-138%. It also gave a Kp ([2]; oral, 30 mg/kg) of 0.8 to 1.2, a Kp ([2]; mice and rats, oral administration) of about 1 and an inhibition at 1 µM [3] of over 90%.
